Earlier results in patent US20260115111A1, “METHOD FOR IMPROVING THE TACTILE SENSATION OF DYED KERATINOUS MATERIAL, ESPECIALLY HUMAN HAIR” (Henkel AG & Co. KGaA, priority 2019, published 2026).

Settings: 25° C.

Structure (SMILES)	solubility in water
CCN(Cc1cccc(S(=O)(=O)[O-])c1)c1ccc(C(=C2C=CC(=[N+](CC)Cc3cccc(S(=O)(=O)[O-])c3)C=C2)c2ccccc2S(=O)(=O)[O-])cc1.[Na+].[Na+] [Acid Blue 9]	more than 20 wt. %
O=S(=O)([O-])c1ccc(N=Nc2c(O)ccc3ccccc23)cc1.[Na+] [Acid Orange 7, sodium salt of 4-[(2-hydroxy-1-naphthyl)azo]benzene sulphonate]	more than 7 g/L
Nc1cc(S(=O)(=O)[O-])cc2cc(S(=O)(=O)[O-])c(N=Nc3ccccc3)c(O)c12.[Na+].[Na+] [Acid Red 33, diantrium salt of 5-amino-4-hydroxy-3-(phenylazo)-naphthalene-2,7-disulphonate]	2500 µg/mL
O=C([O-])c1c(Cl)c(Cl)c(Cl)c(Cl)c1-c1c2c(Br)cc(=O)c(Br)c-2oc2c(Br)c(O)cc(Br)c12.O=C([O-])c1c(Cl)c(Cl)c(Cl)c(Cl)c1-c1c2c(Br)cc(=O)c(Br)c-2oc2c(Br)c(O)cc(Br)c12.[Na+].[Na+] [Acid Red 92, disodium salt of 3,4,5,6-tetrachloro-2-(1,4,5,8-tetrabromo-6-hydroxy-3-oxoxanthen-9-yl)benzoic acid]	greater than 10 g/L
O=C([O-])C1=NN(c2ccc(S(=O)(=O)[O-])cc2)C(=O)C1N=Nc1ccc(S(=O)(=O)[O-])cc1.[Na+].[Na+].[Na+] (centres unmarked) [Acid Yellow 23, trisodium salt of 4,5-dihydro-5-oxo-1-(4-sulfophenyl)-4-((4-sulfophenyl)azo)-1H-pyrazole-3-carboxylic acid]	highly soluble
